The conditions of series [1]: cited from earlier work.
A short description of series [2]: Stability study at 40° C. under vacuum (impurity/lactone content). The class given is physicochemical. The settings on record: for lactone content after storage: 20 and 40 hours (final value); for lactone impurity content of starting product: before storage; for chemical stability compared to Rosuvastatin acid: 40 h, hemihydrate. The protocol: Stability Studies at 40° C. Under Vacuum of Co-crystal Rosuvastatin 2-Aminopyrimidine Hemihydrates Compared to Rosuvastatin
The co-crystal has only 3 impurities at 5.651, 5.948 and 6.674 (lactone) min.
For RSV, only some impurities (impurities in common with the co-crystal or impurities with a significant variation) were studied.
Storage conditions: 40° C. under vacuum for 20 and 40 hours.

A short description of series [3]: Solubility in a series of solvents at room temperature. The class given is physicochemical. From the text: The solubility of co-crystal Rosuvastatin 2-aminopyrimidine hemihydrate in a series of solvents at room temperature is provided in Table 2 given below: […]
Series [4] can be described thus: Solid-state stability, stored at room temperature in a sealed vial (XRPD). The class given is physicochemical. The settings on record: 3 weeks.
Series [5] in a line: Humidity stability, stored at room temperature at RH 100% (XRPD). The class given is physicochemical. The settings on record: RH of 100%, 24 h. From the text:
Moreover, the solid maintains its good handling properties.

A short description of series [6]: Polymorphism observed during screening and purification studies. The settings on record: during screening and studies of the purification of Rosuvastatin. The class given is physicochemical. From the text:
Co-crystals of the present invention have a relative lack of polymorphism due to the higher complexity of the crystal structure: polymorphs of co-crystal Rosuvastatin 2-aminopyrimidine hemihydrate were not observed during screening and studies of the purification of Rosuvastatin. In contrast, form salts of Rosuvastatin amines having different polymorphs.

The mark [7] stands for this setting: 40° C. under vacuum, 20 and 40 hours.

We go through three compounds from patent publication US8815862B2, “Co-crystal intermediates of rosuvastatin and methods of using same” (F.I.S. Fabbrica Italiana Sintetici S.p.A., priority 2011, dated 2014).

A word on the pKa: it is the negative logarithm of the acid dissociation constant.

In the case of `c1ccc2nccnc2c1` [quinoxaline], the pKa in series [1] is 0.56.

Turning to `CC(C)c1nc(N(C)S(C)(=O)=O)nc(-c2ccc(F)cc2)c1/C=C/[C@@H](O)C[C@@H](O)CC(=O)O` [RSV, (E)-(3R,5S)-7-[4-(4-Fluorophenyl)-6-isopropyl-2-[(methylsulfonyl)(methyl)amino]pyrimidin-5-yl]-3,5-dihydroxyhept-6-enoic acid, reference compound], the “change of other impurities on storage” value in series [2] (setting [7]) was “increased with time”. In addition, the “lactone content after storage” value in series [2] (40° C. under vacuum) stood at 39.84%. Moreover, the “lactone impurity content of starting product” value in series [2] is 17.267%. Also, the pKa in series [1] was 4.6.

Take “Rosuvastatin 2-aminopyrimidine hemihydrate”: the “solubility in ACN” value in series [3] (ACN) is 14 vol. Further, the “solubility in AcOEt” value in series [3] (AcOEt) turned out to be 20 vol. Besides, the “solubility in Acetone” value in series [3] (Acetone) is listed as 4 vol. Moreover, the “solubility in EtOH” value in series [3] (EtOH) was found to be 10 vol. Moreover, the “solubility in MIK” value in series [3] (MIK) is reported as 45 vol. The “solubility in MeOH” value in series [3] (MeOH) amounted to 3 vol. Further, in series [3] (THF), the “solubility in THF” value is 2 vol. Moreover, in series [4], the “crystalline transformation or loss of crystallinity (XRPD)” value was “does not show crystalline transformation (same XRPD) or loss of crystallinity”. Further, the “XRPD / crystallinity after humidity exposure” value in series [5] was “same XRPD without loss of crystallinity”. Moreover, in series [2] (setting [7]), the “change of other impurities on storage” value is “negligible” and the “new impurities on storage” value is on record as “No new impurities were observed”. In addition, the “lactone content after storage” value in series [2] (40° C. under vacuum) was 0.091%. In addition, the “chemical stability compared to Rosuvastatin acid” value in series [2] (40° C. under vacuum, listed as Co-crystal Rosuvastatin 2-aminopyrimidine hemihydrate) was “higher than the Rosuvastatin acid”. The “chemical stability compared to Rosuvastatin acid” value in series [2] (40° C. under vacuum, listed as co-crystal) is recorded as “higher than the stability of the Rosuvastatin acid”. In addition, in series [2], the “lactone impurity content of starting product” value was determined as 0.036%. For the same compound, the polymorphs observed result in series [6] is listed as “not observed”.
